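Where inhibition never reached the appropriate level, the endpoint shown equals the highest concentration tested. Otherwise, values were interpolated linearly from a five-concentration, 48-hour dose response in 96-well plates. GI50 is the concentration that inhibits growth by half.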 Calls of active or inactive are those of the source. Cut-off read from the data, not from the text of the source: active = GI50 up to about 1.1 µM and inactive = higher.
Legend:
Experiment in all cases: NCI anticancer screen, dose series, 48 h
[1] = test system: HCT-116
[2] = test system: OVCAR-5
[3] = test system: SF-268
[4] = test system: SK-MEL-28
[5] = test system: HL-60
[6] = test system: M14
[7] = test system: U-251
[8] = test system: MDA-MB-435
[9] = test system: NCI-H522
[10] = test system: DU-145
[11] = test system: MCF7
[12] = test system: T47D
[13] = test system: EKVX
[14] = test system: CAKI-1
[15] = test system: BT-549
[16] = test system: KM12
[17] = test system: IGROV-1
[18] = test system: Malme-3M
[19] = test system: MOLT-4

Row | SMILES | GI50 [1] | GI50 [2] | GI50 [3] | GI50 [4] | GI50 [5] | GI50 [6] | GI50 [7] | GI50 [8] | GI50 [9] | GI50 [10] | GI50 [11] | GI50 [12] | GI50 [13] | GI50 [14] | GI50 [15] | GI50 [16] | GI50 [17] | GI50 [18] | GI50 [19]
1 | O=C(O)CCn1cnc2c(S)ncnc21 | > 100 µM (inactive) | > 100 µM (inactive) | > 100 µM (inactive) | > 100 µM (inactive) | > 100 µM (inactive) | > 100 µM (inactive) | > 100 µM (inactive) | > 100 µM (inactive) | > 100 µM (inactive) | > 100 µM (inactive) | > 100 µM (inactive) | > 100 µM (inactive) | > 100 µM (inactive) | > 100 µM (inactive) | > 100 µM (inactive) | > 100 µM (inactive) | > 100 µM (inactive) | > 100 µM (inactive) | > 100 µM (inactive)
2 | Cc1nnc(N)nc1C/C=C/C(Sc1ccc(Cl)cc1)c1ccccc1 (stereo not given) | 3.59 µM (inactive) | 4.89 µM (inactive) | 2.4 µM (inactive) | 6.78 µM (inactive) | 2.87 µM (inactive) | 4.73 µM (inactive) | 2.91 µM (inactive) | 3.15 µM (inactive) | 1.81 µM (inactive) | 8.02 µM (inactive) | 3.95 µM (inactive) | 11.2 µM (inactive) | 3.64 µM (inactive) | 5.7 µM (inactive) | 2.13 µM (inactive) | 3.56 µM (inactive) | 1.82 µM (inactive) | 3.06 µM (inactive) | 2.56 µM (inactive)
3 | CSc1nc(C)c(CCOC(C)=O)c(Cl)n1 | > 100 µM (inactive) | > 100 µM (inactive) | > 100 µM (inactive) | > 100 µM (inactive) | > 100 µM (inactive) | > 100 µM (inactive) | > 100 µM (inactive) | > 100 µM (inactive) | > 100 µM (inactive) | > 100 µM (inactive) | > 100 µM (inactive) | > 100 µM (inactive) | > 100 µM (inactive) | > 100 µM (inactive) | > 100 µM (inactive) | > 100 µM (inactive) | > 100 µM (inactive) | > 100 µM (inactive) | > 100 µM (inactive)
4 | Nc1ccc(S(=O)(=O)C23CC4CC(CC(C4)C2)C3)cc1 | > 100 µM (inactive) | > 100 µM (inactive) | > 100 µM (inactive) | > 100 µM (inactive) | 27.2 µM (inactive) | > 100 µM (inactive) | > 100 µM (inactive) | 72.9 µM (inactive) | > 100 µM (inactive) | 78 µM (inactive) | > 100 µM (inactive) | 34.1 µM (inactive) | > 100 µM (inactive) | > 100 µM (inactive) | > 100 µM (inactive) | > 100 µM (inactive) | > 100 µM (inactive) | > 100 µM (inactive) | 
5 | COC1=CC(=O)c2c(O)ccc(O)c2C1=O | 4.6 µM (inactive) | 18.4 µM (inactive) | 7.26 µM (inactive) | 1.92 µM (inactive) | 3.77 µM (inactive) | 0.689 µM (active) | 13.1 µM (inactive) | 0.659 µM (active) | 11.5 µM (inactive) | 1.78 µM (inactive) | 2.82 µM (inactive) | 18.1 µM (inactive) | 20.2 µM (inactive) |  | 2.44 µM (inactive) | 6.93 µM (inactive) | 18.1 µM (inactive) | 0.0607 µM (active) | 13.8 µM (inactive)
6 | O=C(O)Cc1cccc2c1OC(c1ccccc1)C(Cl)(C(=O)c1ccccc1)C2=O (stereo not given) | 15.1 µM (inactive) |  | 27.9 µM (inactive) | 15.6 µM (inactive) | 11.9 µM (inactive) |  | 17.2 µM (inactive) | 15.8 µM (inactive) | 14.2 µM (inactive) | 24.4 µM (inactive) | 6.01 µM (inactive) | 16.9 µM (inactive) | 21.5 µM (inactive) | 17.8 µM (inactive) | 43 µM (inactive) | 18.5 µM (inactive) | 15.6 µM (inactive) | 18.2 µM (inactive) | 22.4 µM (inactive)
